Measured values taken from US11993594B2, “IRAK inhibitors and method for making and using” (Rigel Pharmaceuticals, Inc., priority 2016, dated 2024).
Like-named read-outs stand apart in the source and are kept apart here.

Assays:
[1] = system: LPS induced IL-23 (p19/p40) in DC cells; assay: IL23-p19 ELISA, dendritic (DC) cells differentiated from human PBMC, LPS stimulated; format: cell-based; settings: LPS 1 μg/ml, 18 hours, 10 pt
Protocol: Compound Screening Using DC Cells
Human PBMC cells (400 million) obtained from the vendor were transferred into a T-175 flask containing 15 ml RPMI media (10% FBS) and incubate for 2 hours at 37° C. After 2 hours, the media including floating cells was aspirated out carefully and 12 ml of fresh RPMI media (10% FBS) containing GMCSF (100 ng/ml) and IL4 (20 ng/ml) was added, and the flask was kept in a 37° C. incubator for 7 days.
After 3 days, fresh GMCSF (100 ng/ml) and IL4 (20 ng/ml) were added to the flask and the incubation continued. After 7 days, the fully differentiated cells were harvested by spinning down (1200 rpm/5 min) and aspirating the media. The cells were suspended in fresh RPMI media (10% FBS) containing 50 ng/ml IFNγ (1000 U/ml) and then plated (50K/well in 100 μl) onto a white clear bottom 96 well plate and left in a 37° C. incubator for 24 hours.
After 24 hours incubation, 100 μl of RPMI media was added containing 2× concentrated test compound per well to the above cell-culture media (final concentration becomes 1×) and the plates were pre-incubated for 1 hour at 37° C. before stimulating with LPS.
After 1 hour compound pre-incubation, 10 μl per well of 20× concentrated LPS solution in RPMI media was added to give a final concentration of 1 μg/ml. The mixture was shaken and incubated the plates at 37° C. for an additional 18 hours.
155 μl of the supernatant was harvested from each well carefully (without the tip touching the bottom of the well) and to the remaining 50 μl/well of the cell culture plate was added 50 μl of Cell Titer Glo reagent. The mixture was incubated for 1-2 minutes on a shaker and the plate was read for luminescence intensity to determine the compound cytotoxicity. The cell culture supernatant collected above was used to carry out IL23 ELISA (65 μl—Supernatant) and IL10 ELISA (90 μl—Supernatant) as described below.
Human IL-23 (p19/p40) ELISA Protocol (e-Biosciences)
To 10.5 ml PBS add 50 μl of anti-IL23 (p19) was added capture antibody (2.5 μg/ml). The mixture was mixed well and 100 μl of the coating solution was added to each well of the 96 well white plates from Pierce. The wells were covered and incubated overnight at 4° C.
The anti-IL23 (p19)-antibody-coated plates were washed 2× using TBST (use plate washer) and blocked using 200 μl of 0.5% Casein for 1.5 to 2 hours at room temperature with shaking.
The plates were washed 2× using TBST and the supernatant was transferred (65 μl/well) to the above pre-blocked/IL23(p19)-antibody-coated 96 well plate, and incubated at room temperature for 1.5 hours with shaking.
The plates were washed 4× using TBST (plate washer) and 100 μl/well detection antibody solution prepared from 2 μl of biotin labeled anti-IL-12 (p40/p70) antibody in 11 ml 1% BSA/PBS solution (1-5000 dilution) was added. The plates were incubated for 1 hour with shaking at Room temperature.
Again, the plates were washed 4× with TBST and 100 μl of HRP labeled Streptavidin (R&D Systems) solution (10 μl/10 ml 1% BSA solution) was added, and the plates were incubated at room temperature for another 45 minutes with shaking.
After 45 minutes, the plates were washed with TBST 4× and 100 μl/well Super Signal ELISA Pico Chemiluminescent Substrate from Pierce (3.5 ml A+3.5 ml B+3.5 ml MQ water) was added. The plates were shaken for 1-2 minutes then read on a plate reader. […]

[2] = system: LPS Induced IL23p19 in THP-1 Cells; assay: LPS Induced IL23p19 in THP-1 Cells (with IFNγ Primed) Assay; format: cell-based, human; settings: THP-1 cells primed with IFNγ 50 ng/mL, LPS 1 ug/mL, 18 hours, 10 pt, read-out: IL23-p19 ELISA, THP1-IFNγ, LPS, 10 pt EC50
Description: LPS Induced IL23p19 in THP-1 Cells (with IFNγ Primed) Assay
THP-1 Cells (ATCC, Cat #TIB-202), Dimethyl Sulfoxide (DMSO) (Sigma-Aldrich, Cat #D2650), RPMI 1640 (Cellgro, Cat #10-040-CM), Fetal Bovine Serum (Sigma, Cat #F4135), Albumin From Bovine Serum (BSA) (Sigma-Aldrich, Cat #A7906), LPS (Serotype K-235, Sigma, Product Number L 2143), IFNγ (Peprotech, Cat #300-02) Capture antibody: Human IL-23p19 ELISA (e-Bioscience, Cat. #14-7238-85), Detection antibody: Primary Mouse Biotinylated anti-human IL-12(p40/p70) (e-Bioscience, Cat. #13-7129-85), Secondary HRP-conjugated Streptavidin (R&D Systems, Cat #DY998), 1×PBST Washing Buffer (PBS-Tween tablet) (VWR International, Cat #80058-558), ELISA Blocking Buffer (PBS with 1% BSA), ELISA Dilution Buffer (PBS with 1% BSA), 384 Well Flat-Bottom, MaxiSorp Black Immuno Plates (Thermo Scientific, Cat #12-565-346), 384 Well Flat-Bottom, White Tissue Culture Plates (Thermo Scientific, Cat #12-565-343), Super Signal ELISA Pico Chemiluminescent Substrate (Thermo Scientific, Cat #37070), Cell Titer Glo reagent (Promega, Cat #G7573), Positive control, IKK2VI inhibitor (Calbiochem, Cat #401483), AquaMax 4000 plate washer (Molecular Devices), Luminometer, Wallac Victor2 1420 Multilabel Counter.
On day 1, 50K/well THP-1 cells were seeded and primed with IFNγ (50 ng/mL) in 384-well plates for about 18 hours in RPMI media with 10% FBS. On day 2, the compound was serially diluted in DMSO from 5 mM in 3-fold dilutions, and then diluted 1:125 in RPMI media with 10% FBS. 50 μL/well 2× compound was added to 50 μL/well THP-1 cells (with IFNγ primed) in duplicate in 384 well tissue culture plates. The cells were pre-incubated with compound for 1 hour at 37° C., 5% CO2 before addition of 10 μL/well 11×LPS to give a final concentration of 1 ug/mL LPS. Day 3, after stimulation for 18 hours at 37° C., 5% CO2, the assay plate was centrifuged and 70 μL/well supernatant was harvested. IL-23p19 protein in 70 µL/well of supernatant was measured by sandwich ELISA, and 25 μl/well Cell Titer Glo reagent was added to the remaining cells to measure compound toxicity.
Human IL-23p19 Sandwich ELISA:
Maxisorp immuno ELISA plates were pre-coated with 25 μL/well of anti-IL-23p19 capture antibody (2.5 ug/mL) in PBS overnight at room temperature. After washing with 1×PBST, the plates were blocked using 100 μL/well of 1% BSA in PBS for 2 hours at room temperature. The plates were washed three times with 1×PBST and 70 μL/well supernatant were added. The plates were incubated at room temperature for 2 hours with shaking and washed three times with 1×PBST. 25 μL/well of biotin labeled anti-IL-12(p40/p70) detection antibody (100 ng/mL) in PBS with 1% BSA was added and the plates were incubated at room temperature for 2 hours with shaking. After washing three times with 1×PBST, 25 μL/well of streptavidin-HRP (1:200) in PBS with 1% BSA was added and the plates were incubated at room temperature for 20 minutes with shaking. The plates were washed three times with 1×PBST and 25 μL/well of Super Signal ELISA Pico Chemiluminescent Substrate were added. The plates were read with a luminometer, and the chemiluminescence values were entered into Athena (Rigel) for curve fitting, EC50 calculation, and database storage. […]

EC50 ([1]; Table 1, IFNγ 50 ng/ml) [nM]	EC50 ([1]; Table 2, IFNγ 50 ng/ml) [nM]	EC50 ([2]; Table 1) [nM]	EC50 ([2]; Table 2) [nM]	EC50 ([1]; Table 3, IFNγ 50 ng/ml) [nM]	EC50 ([2]; Table 3) [nM]	EC50 ([2]; Homo sapiens, Table 1) [nM]	Compound
25.6	25.6	83.3	83.3	–	–	–	CCOC1CCC(n2cc(NC(=O)c3coc(-c4cnn(COP(=O)(O)O)c4)n3)c(-c3cnccn3)n2)CC1 (stereo not shown) [Compound I-18, sodium (4-(4-((1-((1r,4r)-4-ethoxycyclohexyl)-3-(pyrazin-2-yl)-1H-pyrazol-4-yl)carbamoyl)oxazol-2-yl)-1H-pyrazol-1-yl)methyl phosphate]
75.7	75.7	28	28	–	–	–	O=C(Nc1cn([C@H]2CC[C@H](N3CCOCC3)CC2)nc1-c1nc(C(F)(F)F)ccc1F)c1coc(-c2cn[nH]c2)n1 [Compound I-7, N-(3-(3-fluoro-6-(trifluoromethyl)pyridin-2-yl)-1-((1r,4r)-4-morpholinocyclohexyl)-1H-pyrazol-4-yl)-2-(1H-pyrazol-4-yl)oxazole-4-carboxamide]
–	–	–	–	170	243	–	CCOCCn1cc(NC(=O)c2coc(-c3cn[nH]c3)n2)c(-c2ccccn2)n1 [Compound I-21, N-(1-(2-ethoxyethyl)-3-(pyridin-2-yl)-1H-pyrazol-4-yl)-2-(1H-pyrazol-4-yl)oxazole-4-carboxamide]
207	–	–	–	–	–	976	CCO[C@H]1CC[C@H](n2cc(NC(=O)c3coc(-c4cn[nH]c4)n3)c(-c3cc(F)cc(F)n3)n2)CC1 [Compound I-29, N-(3-(4,6-difluoropyridin-2-yl)-1-((1r,4r)-4-ethoxycyclohexyl)-1H-pyrazol-4-yl)-2-(1H-pyrazol-4-yl)oxazole-4-carboxamide]
–	–	–	–	71	270	–	O=C(Nc1cn(C2CCC2)nc1-c1ccccn1)c1coc(-c2cn[nH]c2)n1 [Compound I-23, N-(1-cyclobutyl-3-(pyridin-2-yl)-1H-pyrazol-4-yl)-2-(1H-pyrazol-4-yl)oxazole-4-carboxamide]
15.6	15.6	60.3	60.3	–	–	–	CCO[C@H]1CC[C@H](n2cc(NC(=O)c3coc(-c4cnn(COP(=O)(O)O)c4)n3)c(-c3cnccn3)n2)CC1 [Compound I-17, (4-(4-((1-((1r,4r)-4-ethoxycyclohexyl)-3-(pyrazin-2-yl)-1H-pyrazol-4-yl)carbamoyl)oxazol-2-yl)-1H-pyrazol-1-yl)methyl dihydrogen phosphate]
143	143	34.1	34.1	–	–	–	CCO[C@H]1CC[C@H](n2cc(NC(=O)c3coc(-c4cn[nH]c4)n3)c(-c3ncc(F)cc3F)n2)CC1 [Compound I-13, N-(3-(3,5-difluoropyridin-2-yl)-1-((1r,4r)-4-ethoxycyclohexyl)-1H-pyrazol-4-yl)-2-(1H-pyrazol-4-yl)oxazole-4-carboxamide]
–	–	–	–	217	238	–	N-(1-(2-(2-methoxyethoxy)ethyl)-3-(pyridin-2-yl)-1H-pyrazol-4-yl)-2-(1H-pyrazol-4-yl)oxazole-4-carboxamide [Compound I-24]
179	179	25.4	25.4	–	–	–	O=C(Nc1cn([C@H]2CC[C@H](O)CC2)nc1-c1nc(F)ccc1F)c1coc(-c2cn[nH]c2)n1 [Compound I-11, N-(3-(3,6-difluoropyridin-2-yl)-1-((1r,4r)-4-hydroxycyclohexyl)-1H-pyrazol-4-yl)-2-(1H-pyrazol-4-yl)oxazole-4-carboxamide]
–	–	–	–	161	400	–	O=C(Nc1cn(CCOCC(F)F)nc1-c1ccccn1)c1coc(-c2cn[nH]c2)n1 [Compound I-25, N-(1-(2-(2,2-difluoroethoxy)ethyl)-3-(pyridin-2-yl)-1H-pyrazol-4-yl)-2-(1H-pyrazol-4-yl)oxazole-4-carboxamide]
417	417	204	204	–	–	–	CCO[C@H]1CC[C@H](n2cc(NC(=O)c3coc(-c4cn[nH]c4F)n3)c(-c3cnccn3)n2)CC1 [Compound I-32, N-(1-((1r,4r)-4-ethoxycyclohexyl)-3-(pyrazin-2-yl)-1H-pyrazol-4-yl)-2-(5-fluoro-1H-pyrazol-4-yl)oxazole-4-carboxamide]
